Test results reported in patent US20260092061A1, “COMPOUNDS FOR TARGETED PROTEIN DEGRADATION” (Amphista Therapeutics Limited, priority 2022, published 2026).

How the values were obtained:
BRD9 [1] = target: T1, BRD9 (Homo sapiens, UniProt Q9H8M2); test: BRD9 degradation, HiBiT-BRD9 KI HEK293 (LgBiT) cells, NanoGlo Lytic Endpoint assay (Assay Protocol 1); assay type: cell-based; conditions: BRD9 degradation; for Dmax / Dmax at 1 µM: HEK293; for Dmax at 1 µM: 1 μM compound at 6 h of treatment, read-out: Assay 1 Dmax
T1 sequence (Q9H8M2 1-597): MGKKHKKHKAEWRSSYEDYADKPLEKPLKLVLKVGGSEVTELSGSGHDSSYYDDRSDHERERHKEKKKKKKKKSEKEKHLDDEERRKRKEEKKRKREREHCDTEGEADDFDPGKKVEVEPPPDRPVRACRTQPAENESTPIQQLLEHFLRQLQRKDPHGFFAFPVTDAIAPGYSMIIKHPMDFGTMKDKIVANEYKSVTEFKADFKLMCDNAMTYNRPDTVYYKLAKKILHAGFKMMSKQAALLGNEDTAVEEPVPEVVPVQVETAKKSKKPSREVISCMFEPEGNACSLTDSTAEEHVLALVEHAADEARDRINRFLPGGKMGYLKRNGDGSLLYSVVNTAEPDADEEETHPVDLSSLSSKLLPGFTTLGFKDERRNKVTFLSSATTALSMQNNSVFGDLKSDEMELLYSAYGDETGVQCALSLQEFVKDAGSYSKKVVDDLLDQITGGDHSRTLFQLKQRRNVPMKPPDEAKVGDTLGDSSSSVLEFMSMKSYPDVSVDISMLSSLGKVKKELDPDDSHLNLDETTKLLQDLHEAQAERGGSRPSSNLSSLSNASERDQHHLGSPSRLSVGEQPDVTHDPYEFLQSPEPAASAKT
How it was run: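 HiBiT-tagged BRD9 knock-in HEK293 (LgBiT) cells exposed to compounds for 6 h at 37 °C, 5% CO2. Residual BRD9 measured by HiBiT lytic luminescence. % BRD9 remaining normalised to DMSO-treated cells (high) and no-cell wells (low).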

BRD9 [2] = target: T1, BRD9; test: Degradation of BRD9 (IF), immunofluorescence in MV4-11 cells, 24 hours (Assay Protocol 2); assay type: cell-based; design: A suspension of MV4-11 cells (ATCC CRL-9591) was prepared; host or cells: MV4-11
How it was run: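 MV4-11 cells treated with compound 24 h at 37° C., then fixed, permeabilised and immunostained for BRD9 (anti-BRD9 E4Q3F, Alexa 647 secondary, Hoechst counterstain). High-content imaging quantified nuclear BRD9 signal; % BRD9 remaining normalised to DMSO and 100 nM CFT-8634 controls.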

[3] = Assay protocol 1, read-out: DC50
[4] = Assay protocol 1, read-out: Dmax
[5] = Assay protocol 2, BRD9 degradation, read-out: DC50
[6] = MV4-11, Assay protocol 2, BRD9 degradation, read-out: Dmax
[7] = Table 2, Assay Protocol 1, 6 h of treatment, read-out: Assay 1 DC50
[8] = MV4-11, 24 h, Table 2, BRD9 degradation (IF), Assay Protocol 2, MV4-11 cells, read-out: Assay 2 DCmax
[9] = Table 2, BRD9 degradation (IF), Assay Protocol 2, MV4-11 cells, read-out: Assay 2 DC50
[10] = Table 4, determined according to Assay Protocol 1, read-out: Dmax^1
[11] = Table 4, determined according to Assay Protocol 1, read-out: DC50^1
[12] = MV4-11, Table 4, BRD9 degradation, determined according to Assay Protocol 2, read-out: Dmax^2
[13] = Table 4, BRD9 degradation, determined according to Assay Protocol 2, read-out: DC50^2

Structure (SMILES) | DC50 (BRD9 [1]; [3]) | Dmax (BRD9 [1]; [4]) | DC50 (BRD9 [2]; [5]) | Dmax (BRD9 [2]; [6]) | further results
COc1cc(-c2cn(C)c(=O)c(C)c2C)cc(OC)c1CN1CCN(c2cccc(C3CCCN3C(=O)/C(C#N)=C/C(C)(C)C)c2)CC1 (mixture of isomers) [Compound B41, (E/Z)-2-(2-(3-(4-(2,6-dimethoxy-4-(1,4,5-trimethyl-4-oxo-1,6-dihydropyridin-3-yl)benzyl)piperazin-1-yl)phenyl)pyrrolidine-1carbonyl)-4,4-dimethylpent-2-enenitrile] | 1.25 to 10 nM | > 75% | 10 to 25 nM | > 75% | 
COc1cc(-c2cn(C)c(=O)c(C)c2C)cc(OC)c1CN1CCC(Oc2cccc3c2CCN(C(=O)/C(C#N)=C/C(C)(C)C)C3C)CC1 (mixture of isomers) [Compound B44, (E/Z)-2-(5-((1-(2,6-dimethoxy-4-(1,4,5-trimethyl-6-oxo-1,6-dihydropyridin-3-yl)benzyl)piperidin-4-yl)oxy)-1-methyl-1,2,3,4-tetrahydroisoquinoline-2-carbonyl)-4,4-dimethylpent-2-enenitrile] | < 1.25 nM | > 75% | < 1.25 nM | 40 to 70% | 
COc1cc(-c2cn(C)c(=O)c(C)c2C)cc(OC)c1CN1CCN(Cc2cccc3c2CCN(C(=O)/C(C#N)=C/C24CC(C2)C4)C3C)CC1 (mixture of isomers) [Compound B45, (E/Z)-3-(bicyclo[1.1.1]pentan-1-yl)-2-(5-((4-(2,6-dimethoxy-4-(1,4,5-trimethyl-6-oxo-1,6-dihydropyridin-3-yl)benzyl)piperazin-1-yl)methyl)-1-methyl-1,2,3,4-tetrahydroisoquinoline-2-carbonyl)acrylonitrile] | < 1.25 nM | > 75% | < 1.25 nM | > 75% | 
COc1cc(-c2cn(C)c(=O)c(C)c2C)cc(OC)c1CN1CCN(c2cccc3c2CCN(C(=O)/C(C#N)=C/c2cccc(Br)n2)C3C)CC1 (single isomer, unassigned) [Compound C28, (E/Z)-3-(6-bromopyridin-2-yl)-2-(5-(4-(2,6-dimethoxy-4-(1,4,5-trimethyl-6-oxo-1,6-dihydropyridin-3-yl)benzyl)piperazin-1-yl)-1-methyl-1,2,3,4-tetrahydroisoquinoline-2-carbonyl)acrylonitrile] |  | 25 to 40% | 25 to 1000 nM | 40 to 70% | 
COc1cc(-c2cn(C)c(=O)c3cc(C(=O)NCCOc4ccc5c(c4)CCN(C(=O)/C(C#N)=C/c4nccs4)C5C)sc23)cc(OC)c1CN(C)C (mixture of isomers) [Compound A74] |  |  |  |  | Dmax at 1 µM (BRD9 [1]; Table 2, Assay Protocol 1): 40 to 70%; DC50 (BRD9 [1]; [7]): 25 to 300 nM; Dmax (BRD9 [2]; [8]): 40 to 70%; DC50 (BRD9 [2]; [9]): 1.25 to 10 nM
COc1cc(-c2cn(C)c(=O)c(C)c2C)cc(OC)c1CN1CCN(CC(=O)NCCOc2ccc3c(c2)C(C)N(C(=O)/C(C#N)=C/c2nccs2)CC3)CC1 (mixture of isomers) [Compound B29, (E/Z)—N-(2-((2-(2-cyano-3-(thiazol-2-yl)acryloyl)-1-methyl-1,2,3,4-tetrahydroisoquinolin-7-yl)oxy)ethyl)-2-(4-(2,6-dimethoxy-4-(1,4,5-trimethyl-6-oxo-1,6-dihydropyridin-3-yl)benzyl)piperazin-1-yl)acetamide] | 25 to 1000 nM | 70 to 75% | 10 to 25 nM | > 75% | 
COc1cc(-c2cn(C)c(=O)c(C)c2C)cc(OC)c1CN1CCN(C(=O)C2CC(C(C)C)CN(C(=O)/C(C#N)=C/C(C)(C)C)C2)CC1 (stereo not shown) [Compound B207] |  |  |  |  | Dmax (BRD9 [1]; [10]): > 70%; DC50 (BRD9 [1]; [11]): 25 to 200 nM; Dmax (BRD9 [2]; [12]): > 70%; DC50 (BRD9 [2]; [13]): 25 to 200 nM
COc1cc(-c2cn(C)c(=O)c(C)c2C)cc(OC)c1CN1CCN(C(=O)c2cccc(C3CCCN3C(=O)/C(C#N)=C/c3nccs3)c2)CC1 (stereo not shown) [Compound B23] | 10 to 25 nM | 70 to 75% | 1.25 to 10 nM | > 75% | 
COc1cccc(/C=C(\C#N)C(=O)N2CC3CC2CN3Cc2c(OC)cc(-c3cn(C)c(=O)c(C)c3C)cc2OC)n1 (mixture of isomers) [BRD9k, (E/Z)-2-(5-(2,6-dimethoxy-4-(1,4,5-trimethyl-6-oxo-1,6-dihydropyridin-3-yl)benzyl)-2,5-diazabicyclo[2.2.1]heptane-2-carbonyl)-3-(6-methoxypyridin-2-yl)acrylonitrile] |  |  |  |  | DC50 (BRD9 [1]; [11]): < 25 nM; Dmax (BRD9 [2]; [12]): 50 to 70%; DC50 (BRD9 [2]; [13]): < 25 nM
COc1cc(-c2cn(C)c(=O)c(C)c2C)cc(OC)c1CN(C)C(=O)/C(C#N)=C/c1cccc(Br)n1 [BRD9ab, (E/Z)-3-(6-bromopyridin-2-yl)-2-cyano-N-(2,6-dimethoxy-4-(1,4,5-trimethyl-6-oxo-1,6-dihydropyridin-3-yl)benzyl)-N-methylacrylamide] |  |  |  |  | DC50 (BRD9 [1]; [11]): < 25 nM; Dmax (BRD9 [2]; [12]): 50 to 70%; DC50 (BRD9 [2]; [13]): < 25 nM
COc1cc(-c2cn(C)c(=O)c(C)c2C)cc(OC)c1CN1C2CC1CN(C(=O)/C(C#N)=C/C1(C(F)(F)F)CCC1)C2 (mixture of isomers) [BRD9p, (E/Z)-2-(6-(2,6-dimethoxy-4-(1,4,5-trimethyl-6-oxo-1,6-dihydropyridin-3-yl)benzyl)-3,6-diazabicyclo[3.1.1]heptane-3-carbonyl)-3-(1-(trifluoromethyl)cyclobutyl)acrylonitrile] |  |  |  |  | Dmax (BRD9 [1]; [10]): > 70%; Dmax (BRD9 [2]; [12]): > 70%
CCCC(c1cccc(C(=O)N2CCN(Cc3c(OC)cc(-c4cn(C)c(=O)c(C)c4C)cc3OC)CC2)c1)N(C)C(=O)/C(C#N)=C/c1nccs1 (mixture of isomers) [Compound B184, (E/Z)-2-cyano-N-(1-(3-(4-(2,6-dimethoxy-4-(1,4,5-trimethyl-6-oxo-1,6-dihydropyridin-3-yl)benzyl)piperazine-1-carbonyl)phenyl)butyl)-N-methyl-3-(thiazol-2-yl)acrylamide] |  | 40 to 70% | 1.25 to 10 nM | 40 to 70% | 
COc1cc(-c2cn(C)c(=O)c3cnccc23)cc(OC)c1CN1CC2CCC(C1)N2Cc1cccc2c1CCN(C(=O)/C(C#N)=C/C(C)(C)C)C2C (mixture of isomers) [Compound A48, (E/Z)-2-(5-((3-(2,6-dimethoxy-4-(2-methyl-1-oxo-1,2-dihydro-2,7-naphthyridin-4-yl)benzyl)-3,8-diazabicyclo[3.2.1]octan-8-yl)methyl)-1-methyl-1,2,3,4-tetrahydroisoquinoline-2-carbonyl)-4,4-dimethylpent-2-enenitrile] |  |  |  |  | Dmax at 1 µM (BRD9 [1]; Table 2, Assay Protocol 1): > 75%; DC50 (BRD9 [1]; [7]): 1.25 to 10 nM; Dmax (BRD9 [2]; [8]): 40 to 70%; DC50 (BRD9 [2]; [9]): < 1.25 nM
COc1cc(-c2cn(C)c(=O)c(C)c2C)cc(OC)c1CN1CCC(Oc2cccc(C3CCCN3C(=O)/C(C#N)=C/C(C)(C)C)c2)C1 (mixture of isomers) [Compound B54, (E/Z)-2-(2-(3-(((S)-1-(2,6-dimethoxy-4-(1,4,5-trimethyl-6-oxo-1,6-dihydropyridin-3-yl)benzyl)pyrrolidin-3-yl)oxy)phenyl)pyrrolidine-1-carbonyl)-4,4-dimethylpent-2-enenitrile] | < 1.25 nM | > 75% | < 1.25 nM | 70 to 75% | 
COc1cc(-c2cn(C)c(=O)c(C)c2C)cc(OC)c1CN(C)C(=O)c1cccc2c1CCN(C(=O)/C(C#N)=C/c1cccc(Br)n1)C2C (mixture of isomers) [Compound B16, (E/Z)-2-(3-(6-bromopyridin-2-yl)-2-cyanoacryloyl)-N-(2,6-dimethoxy-4-(1,4,5-trimethyl-6-oxo-1,6-dihydropyridin-3-yl)benzyl)-N,1-dimethyl-1,2,3,4-tetrahydroisoquinoline-5-carboxamide] | < 1.25 nM | > 75% | 1.25 to 10 nM | > 75% | 
CCCC(c1cccc(CCC(=O)N2CCN(Cc3c(OC)cc(-c4cn(C)c(=O)c(C)c4C)cc3OC)CC2)c1)N(C)C(=O)/C(C#N)=C/c1nccs1 (mixture of isomers) [Compound B185, (E/Z)-2-cyano-N-(1-(3-(3-(4-(2,6-dimethoxy-4-(1,4,5-trimethyl-6-oxo-1,6-dihydropyridin-3-yl)benzyl)piperazin-1-yl)-3-oxopropyl)phenyl)butyl)-N-methy-3-(thiazol-2-yl)acrylamide] | 10 to 25 nM | 40 to 70% | 1.25 to 10 nM | > 75% | 
